The nature of series [1]: Solubility test (1% DMSO, artificial intestinal juice pH 6.8). Format: physicochemical. Particulars: artificial intestinal juice pH 6.8 with 1% DMSO, 25 °C, fassgf or other biorelevant, kinetic from dmso stock, artificial intestinal juice pH 6.8, 25 degrees Celsius. The protocol: 10 mmol/L compound solution was prepared using DMSO, and then 6 μL of the compound solution was added to 594 μL of artificial intestinal juice in pH 6.8 (to 250 mL of 0.2 mol/L potassium dihydrogen phosphate reagent solution was added 118 mL of 0.2 mol/L NaOH reagent solution and water to provide a final volume of 1000 mL). After standing at 25 degrees Celsius for 16 hours, the mixed solution was filtrated with suction. The filtrate was diluted twice with methanol/water ( 1/1) and then a concentration in the filtration was measured with HPLC or LC/MS/MS by the absolute calibration method.

For a further series, the target named is CYP2C9 (Homo sapiens (Human), UniProt P11712). As to the kind of experiment: CYP inhibition test, pooled human hepatic microsome, tolbutamide methyl-hydroxylation. Format: in vitro ADME. Particulars: substrate tolbutamide. The protocol:
Using commercially available pooled human hepatic microsome, and employlng, as markers, 7-ethoxyresorufin O-deethylation (CYP1A2), tolbutamide methyl-hydroxylation (CYP2C9), mephenyloin 4′-hydroxylation (CYP2C19), dextromethorphan O-demethylation (CYP2D6), and terfenedine hydroxylation as typical substrate metabolism reactions of human main five CYP enzyme forms (CYP1A2, 2C9, 2C19, 2D6, 3A4), an inhibitory degree of each metabolite production amount by a test compound was assessed.
The reaction conditions were as follows: substrate, 0.5 μmol/L ethoxyresorufin (CYP1A2), 100 μmol/L tolbutamide (CYP2C9), 50 μmol/L S-mephenitoin (CYP2C19), 5 μmol/L dextromethorphan (CYP2D6), 1 μmol/L terfenedine (CYP3A4) reaction time, 15 minutes; reaction temperature, 37° C; enzyme, pooled human hepatic microsome 0.2 mg protein/mL; test drug concentration, 1.0, 5.0, 10, 20 μmol/L (four points).
Each five kinds of substrates, human hepatic microsome, or a test drug in 50 mmol/L Hepes buffer as a reaction solution was added to a 96-well plate at the composition as described above, NADPH, as a cofactor was added to initiate metabolism reactions as markers and, after the incubation at 37° C. for 15 minutes, a methanol/acetonitrile=1/1 (v/v) solution was added to stop the reaction. After the centrifugation at 3000 rpm for 15 minutes, resorufin (CYP1A2 metabolite) in the supernatant was quantified by a fluorescent multilabel counter and tributamide hydroxide (CYP2CP metabolite), mephenyloin 4′ hydroxide (CYP2C19 metabolite), […] (CYP2D6 metabolite), and terfenadine alcohol (CYP3A4 metabolite) were quantified by LC/MS/MS.

A further series concerns the target rat P2X3 receptor (Rattus norvegicus (Rat), UniProt P49654). In words: Evaluation of rat P2X3 receptor inhibitory activity in the presence of rat serum albumin (1% RSA). Format: cell-based. Here is the method: Rat P2X3 receptor gene (GenBank accession number NM_031075) was expressed in C6BU-1 cell. The cells stably expressing rat P2X3 were seeded in a 96-well microtiter plate at a :concentration of 8000 cells/well and cultured in the medium (8.3% fetal bovine serum, 8.3% horse serum, 1% antibiotic and antifungal in DMEM) for one day at 37° C. under 5% carbon dioxide atmosphere. In transiently expressing system, the C6BU-1 cells were seeded in a 96-well microtiter plate at a concentration of 2500 cells/well and cultured in the medium for one day at 37° C. under 5% carbon dioxide atmosphere. The plasmid was transfected into the cells using transfection reagent FuGENE6 (Roche). The transfected cells were cultured in the medium for one day at 37° C. under 5% carbon dioxide atmosphere. […] Measurement of fluorescence intensity by FDSS 3000 was started, and 40 μL of DMSO solutions containing 1% RSA (final concentrations) and different concentrations of the test compound as prepared by dilution with dilution buffer (20 mM HEPES, 137 mM NaCl, 2.7 mM KCl, 0.9 mM MgCl2, 5.0 mM CaCl2, 5.0 mM D-glucose, 2.5 mM probenecid, 0.1% Pluronic F-127, pH 7.5) were dispensed to each well through the built-in automatic dispenser. Five minutes after, 50 nM ATP solution (50 μL) prepared by dilution with the dilution buffer was dispensed through the built-in automatic dispenser, and the measurement of fluorescence intensity was continued for 3 min. For each well, the specific maximum fluorescence intensity was calculated as the ratio of the maximum fluorescence intensity after addition of the ATP solution to the fluorescence intensity at the starting of the measurement. […] FDSS software (Hamamatsu Photonics K.K.) was used for calculation of the specific maximum fluorescence intensity. IC50 was calculated using Microsoft Excel (Microsoft Corporation) and XLfit (idbs Ltd.).

pIC50: −log10 of the molar value. A value given as a limit tells only on which side of the number the result lay.

CYP2C9, sequence (P11712 whole entry): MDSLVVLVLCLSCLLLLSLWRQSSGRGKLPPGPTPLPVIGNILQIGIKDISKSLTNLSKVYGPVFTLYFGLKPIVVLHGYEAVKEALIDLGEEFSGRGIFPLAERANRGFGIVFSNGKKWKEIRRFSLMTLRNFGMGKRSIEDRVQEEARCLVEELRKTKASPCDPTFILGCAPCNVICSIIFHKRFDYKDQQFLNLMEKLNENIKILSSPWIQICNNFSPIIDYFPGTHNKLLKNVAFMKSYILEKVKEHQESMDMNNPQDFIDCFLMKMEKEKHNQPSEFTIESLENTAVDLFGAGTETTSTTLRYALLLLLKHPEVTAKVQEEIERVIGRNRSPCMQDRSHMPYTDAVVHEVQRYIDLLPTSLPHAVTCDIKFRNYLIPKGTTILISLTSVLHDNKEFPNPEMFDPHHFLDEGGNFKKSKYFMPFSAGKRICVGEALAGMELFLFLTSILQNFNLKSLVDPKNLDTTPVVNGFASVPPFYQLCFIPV
rat P2X3 receptor, sequence (P49654 whole entry): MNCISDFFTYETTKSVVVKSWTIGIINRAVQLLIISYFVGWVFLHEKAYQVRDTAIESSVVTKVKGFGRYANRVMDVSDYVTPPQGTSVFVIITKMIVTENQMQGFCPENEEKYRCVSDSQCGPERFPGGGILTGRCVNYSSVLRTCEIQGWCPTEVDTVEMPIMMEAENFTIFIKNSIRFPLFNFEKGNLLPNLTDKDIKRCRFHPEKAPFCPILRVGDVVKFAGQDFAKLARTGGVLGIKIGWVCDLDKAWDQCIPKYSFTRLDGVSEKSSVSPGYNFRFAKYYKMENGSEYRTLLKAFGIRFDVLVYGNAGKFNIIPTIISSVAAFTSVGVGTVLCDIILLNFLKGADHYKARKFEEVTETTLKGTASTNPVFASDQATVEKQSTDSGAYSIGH

One may read the solubility as the concentration that dissolves in the medium under given conditions. For orientation: pIC50 means the negative decadic logarithm of the IC50, by convention in mol/L. A lower pIC50 goes with a large IC50. In turn, `C[C@@H](Cn1c(=O)[nH]/c(=N\c2ccc(OCC3CC3)cc2)n(Cc2ccc(Cl)cc2)c1=O)C(=O)O` [Compound I-0837] displayed a solubility at 16 h in series [1] of over 50 µM. Besides, the negative-log IC50 (pIC50) against CYP2C9 is under 4.70. The rat P2X3 (+RSA) IC50 on rat P2X3 receptor turned out to be 44 nM.

`CCn1c(=O)[nH]/c(=N\c2ccc(Oc3ccnc(C(=O)O)c3)cc2)n(Cc2ccc(Cl)cc2)c1=O` [Compound I-1788]: the solubility at 16 h in series [1] is over 50 µM. The molecule also gave a negative-log IC50 (pIC50) against CYP2C9 of under 4.70. The rat P2X3 (+RSA) IC50 at rat P2X3 receptor came out at 59 nM.

`O=c1[nH]/c(=N\c2ccc(Oc3ccon3)cc2)n(Cc2ccc(Cl)cc2)c(=O)n1CC(CO)CO` [Compound I-2291] came in with a solubility at 16 h in series [1] of over 50 µM. Further, the pIC50 against CYP2C9 was under 4.70. Further, the rat P2X3 (+RSA) IC50 on rat P2X3 receptor turned out to be 20 nM.

These data come from US9718790B2, “Triazine derivative and pharmaceutical composition having an analgesic activity comprising the same” (SHIONOGI & CO., LTD., priority 2010, dated 2017).
